In patent publication EP0851862B1, “1(HETERO)ARYL-4-(CONDENSED THIAZOL-2-YLALKYL)-PIPERAZINE DERIVATIVES, THEIR PREPARATION AND THEIR USE IN THE TREATMENT OF 5-HT1A-RECEPTOR MEDIATED DISORDERS” (Pharmacia Italia S.p.A., priority 1995, dated 1997) one finds IC50 data, which are given here for 13 compounds.

Assay [1] concerns the target D2 (Rattus norvegicus, UniProt P61169). Kind of assay: receptor binding profile, D2. The settings on record: read-out: D2 Affinity is expressed as IC50.
Assay [2] has as its target 5-HT2 (Rattus norvegicus, UniProt P14842). In words: receptor binding profile, 5-HT2. Conditions: read-out: 5-HT2 Affinity is expressed as IC50.
The target in assay [3] is D1 (Rattus norvegicus, UniProt P18901). In words: receptor binding profile, D1. The settings on record: read-out: D1 Affinity is expressed as IC50.
Chain of D1 (P18901 whole entry): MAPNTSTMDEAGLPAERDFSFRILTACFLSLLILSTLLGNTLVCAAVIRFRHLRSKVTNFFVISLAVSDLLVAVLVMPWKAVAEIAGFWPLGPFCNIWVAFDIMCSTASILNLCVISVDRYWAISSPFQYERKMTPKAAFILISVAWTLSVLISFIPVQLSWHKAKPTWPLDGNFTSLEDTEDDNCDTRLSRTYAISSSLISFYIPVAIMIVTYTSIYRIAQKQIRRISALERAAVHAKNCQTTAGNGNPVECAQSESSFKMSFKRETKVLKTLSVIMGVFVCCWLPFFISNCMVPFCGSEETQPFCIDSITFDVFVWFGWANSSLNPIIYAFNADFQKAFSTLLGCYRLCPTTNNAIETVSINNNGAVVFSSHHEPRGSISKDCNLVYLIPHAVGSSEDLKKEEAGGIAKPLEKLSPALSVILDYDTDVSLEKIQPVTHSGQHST
The target of assay [4] is T1, 5-HT1A receptor sites (Rattus norvegicus, UniProt P19327).
T1 sequence (P19327 1-422): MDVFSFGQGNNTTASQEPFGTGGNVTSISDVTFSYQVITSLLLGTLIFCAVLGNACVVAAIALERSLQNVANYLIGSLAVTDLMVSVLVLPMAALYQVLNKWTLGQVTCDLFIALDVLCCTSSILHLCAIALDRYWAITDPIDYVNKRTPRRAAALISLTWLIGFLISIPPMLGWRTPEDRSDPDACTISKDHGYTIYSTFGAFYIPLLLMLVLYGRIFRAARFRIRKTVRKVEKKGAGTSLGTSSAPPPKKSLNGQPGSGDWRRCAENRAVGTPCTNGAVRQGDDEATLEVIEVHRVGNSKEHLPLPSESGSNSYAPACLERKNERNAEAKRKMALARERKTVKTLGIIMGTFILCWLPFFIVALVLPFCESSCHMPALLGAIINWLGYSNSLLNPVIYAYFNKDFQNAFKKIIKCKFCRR
Kind of assay: receptor binding profile, 5-HT1A. The settings on record: read-out: 5-HT1A Affinity is expressed as IC50.
Source text: The affinity of the compounds of the present invention towards 5-HT1A receptor sites can be assessed by evaluating the binding profile of the compounds of formula (I).

The target in assay [5] is α2. In words: receptor binding profile, α2. The settings on record: read-out: α2 Affinity is expressed as IC50.
For assay [6], the target named is α1. In words: receptor binding profile, α1. The settings on record: read-out: α1 Affinity is expressed as IC50.

pIC50: −log10 of the molar value. Structures can show the parent of a compound that is named as a salt. Bounds are passed on as bounds.

Chain of 5-HT2 (P14842 whole entry): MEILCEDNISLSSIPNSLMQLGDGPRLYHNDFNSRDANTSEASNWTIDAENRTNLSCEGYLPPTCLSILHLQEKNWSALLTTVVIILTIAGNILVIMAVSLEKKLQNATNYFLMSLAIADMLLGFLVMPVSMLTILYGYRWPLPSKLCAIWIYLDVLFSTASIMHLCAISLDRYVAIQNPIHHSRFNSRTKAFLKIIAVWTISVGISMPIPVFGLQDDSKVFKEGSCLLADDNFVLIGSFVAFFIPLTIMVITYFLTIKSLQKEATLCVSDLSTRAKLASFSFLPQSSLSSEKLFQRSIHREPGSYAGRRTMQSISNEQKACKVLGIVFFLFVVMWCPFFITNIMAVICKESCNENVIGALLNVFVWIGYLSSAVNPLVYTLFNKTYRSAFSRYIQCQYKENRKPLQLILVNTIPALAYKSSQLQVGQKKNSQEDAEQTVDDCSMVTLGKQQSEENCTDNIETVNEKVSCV
Chain of D2 (P61169 whole entry): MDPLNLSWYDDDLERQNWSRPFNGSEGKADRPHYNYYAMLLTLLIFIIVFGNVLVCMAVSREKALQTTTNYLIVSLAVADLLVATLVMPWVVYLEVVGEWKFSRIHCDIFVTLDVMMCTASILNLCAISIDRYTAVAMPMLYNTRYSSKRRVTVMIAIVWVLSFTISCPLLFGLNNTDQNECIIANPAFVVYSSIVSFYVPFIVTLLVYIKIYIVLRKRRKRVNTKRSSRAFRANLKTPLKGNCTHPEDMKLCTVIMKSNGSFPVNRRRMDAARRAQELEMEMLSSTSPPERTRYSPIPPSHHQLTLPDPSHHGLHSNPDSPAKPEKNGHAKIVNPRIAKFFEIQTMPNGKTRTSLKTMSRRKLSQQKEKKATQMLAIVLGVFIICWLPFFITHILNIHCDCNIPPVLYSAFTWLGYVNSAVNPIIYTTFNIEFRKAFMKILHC

On to “5-Methoxy-2-[4-(4-phenyl-piperazin-1-yl)-butyl]-4,5-dihydro-naphtho[1,2-d]thiazole hydrochloride [(11)]”, for which the pIC50 in assay [1] is 7.62; in assay [2] it was 7.18; in assay [3], 5.75; in assay [4] it was 8.00; in assay [5], 7.74; in assay [6], 7.28.

As for “5-Methoxy-2-{4-[4-(2-methoxy-phenyl)-piperazin-1-yl]-butyl}-4,5-dihydro-naphtho[1,2-d]thiazole hydrochloride [(13)]”, the pIC50 in assay [1] was 8.10; in assay [2] it was 6.62; in assay [4], 8.43; in assay [5], 7.34; in assay [6], 7.46.

In the case of “5-Methoxy-2-{4-[4-(2-pyridyl)-piperazin-1-yl]-butyl}-4,5-dihydro-naphtho[1,2-d]thiazole hydrochloride [(12)]”, the pIC50 in assay [1] is 7.21; in assay [2], 7.09; in assay [3], 5.83; in assay [4], 8.09; in assay [5], 6.41; in assay [6], 6.72.

“6-Methoxy-2-[4-(4-phenyl-piperazin-1-yl)-butyl]-4,5-dihydro-naphtho[1,2-d]thiazole hydrochloride [(10)]”: the pIC50 is 6.17 in assay [1]; 5.50 in assay [2]; < 5.00 in assay [3]; 6.40 in assay [4]; 5.42 in assay [5]; 5.94 in assay [6].

Turning to “6-Methoxy-2-{4-(4-(2-methoxy-phenyl)-piperazin-1-yl]-butyl}-4,5-dihydro-naphtho[1,2-d]thiazole hydrochloride [(1)]”, the pIC50 is 7.70 in assay [1]; 6.60 in assay [2]; 6.23 in assay [3]; 8.49 in assay [4]; 7.04 in assay [5]; 7.28 in assay [6].

For the compound “7-Methoxy-2-[4-(4-phenyl-piperazin-1-yl)-butyl]-4,5-dihydro-naphtho[1,2-d]thiazole hydrochloride [(7)]”, the pIC50 is 7.60 in assay [1]; 6.06 in assay [2]; 5.93 in assay [3]; 7.92 in assay [4]; 6.30 in assay [5]; 7.31 in assay [6].

As for “7-Methoxy-2-{4-[4-(2-methoxy-phenyl)-piperazin-1-yl]-butyl}-4,5-dihydro-naphtho[1,2-d]thiazole hydrochloride [(8)]”, the pIC50 was 6.82 in assay [1]; 6.14 in assay [2]; 5.79 in assay [3]; 8.15 in assay [4]; 6.42 in assay [5]; 6.70 in assay [6].

Consider “7-Methoxy-2-{4-[4-(2-pyridyl)-piperazin-1-yl]-butyl}-4,5-dihydro-naphtho[1,2-d]thiazole hydrochloride [(9)]”, for which the pIC50 was 7.96 in assay [1]; 7.26 in assay [2]; 6.37 in assay [3]; 8.39 in assay [4]; 7.70 in assay [5]; 7.24 in assay [6].

As for `c1ccc(N2CCN(Cc3nc4c(s3)CCc3ccccc3-4)CC2)cc1` [(2), 2-[(4-phenyl-piperazin-1-yl)-methyl]-4,5 dihydronaphtho[1,2-d]thiazole hydrocloride], the pIC50 was 6.52 in assay [2], 7.38 in assay [4], 6.52 in assay [5] and 6.89 in assay [6].

With `c1ccc(N2CCN(CCc3nc4c(s3)CCc3ccccc3-4)CC2)cc1` [(3)], the pIC50 in assay [2] was 7.20; in assay [4], 6.77; in assay [5] it was 6.80; in assay [6], 6.96.

Regarding `c1ccc(N2CCN(CCCc3nc4c(s3)CCc3ccccc3-4)CC2)cc1` [(4), 2-[3-(4-phenyl-piperazin-1-yl)-propyl]-4,5-dihydronaphtho[1,2-d]thiazole hydrocloride], the pIC50 was 6.55 in assay [2], 7.16 in assay [4], 6.96 in assay [5] and 6.92 in assay [6].

As to `c1ccc(N2CCN(CCCCc3nc4c(s3)CCc3ccccc3-4)CC2)cc1` [(5), 2-[4-(4-phenyl-piperazin-1-yl)-butyl]-4,5-dihydronaphtho[1,2-d]thiazole hydrocloride], the pIC50 in assay [2] is 7.18; in assay [4], 7.17; in assay [5] it was 6.59; in assay [6], 6.77.

`COc1ccc2c(c1)CCc1sc(CCCN3CCN(c4ccccc4OC)CC3)nc1-2` [(6), 7-Methoxy-2-{3-[4-(2-methoxy-phenyl) -piperazin-1-yl]-propyl}-4,5-dihydro-naphtho[1,2-d]thiazole hydrochloride]: the pIC50 is 6.80 in assay [5] and 7.05 in assay [6].
